# Assays:
# [1] = test system: NFKB target genes (IRF4, TNFAIP3 and BIRC3); experiment: PCR of NFKB target genes; type: cell-based
# [2] = test system: IL10 and IL4 production; experiment: IL10 and IL4 production; type: cell-based; conditions: after 24 hours treatment
# [3] = test system: pSTAT3 and p50 (NFKB 1) in ABC cell lines; experiment: immunoblotting and immunohistochemistry; type: cell-based
# [4] = test system: DLBCL cell lines (SU-DHL-6, SU-DHL-2); experiment: gene expression profiling (Illumina HumanHT-12 Expression BeadChips); type: cell-based
# Protocol: Baseline gene expression profiles (GEP) were obtained in 38 lymphoma cell lines, including 22 DLBCL with Illumina HumanHT-12 v4 Expression BeadChip. GEP before and after OTX015 treatment were done in […] DLBCL cell lines, too. The relationship between GEP and IC50 values was assessed by Pearson correlation. LIMMA was used for differential expression analysis, followed by Benjamini-Hochberg multiple test correction, and GSEA to test for enrichment of functionally-related genes.
# Cell lines: 22 diffuse large B-cell lymphoma (DLBCL), 4 mantle cell lymphomas, 3 multiple myelomas, 3 splenic marginal zone lymphoma and 1 prolymphocytic leukemia. Anti-proliferative of OTX015 (OncoEthix SA, Switzerland) was assessed by MTT and its cytotoxic activity by Annexin V staining and gene expression profiling (GEP) with Illumina HumanHT-12 Expression BeadChips. Data mining was done with LIMMA, GSEA, Metacore.
# We performed GEP on 2 cell lines (SU-DHL-6, SU-DHL-2), treated with DMSO or OTX015 (500 nM) for 1, 2, 4, 8 or 12 hours.
# [5] = molecular target: mTORC1 (Homo sapiens, UniProt P42345); conditions: cited from earlier work
# [6] = test system: pAktS473, pGSK3βS9, pS6, pMAPK, pAktT308; conditions: cited from earlier work
# [7] = molecular target: mTORC2 (Homo sapiens, UniProt P42345); conditions: cited from earlier work
# [8] = test system: PKC; conditions: cited from earlier work
# [9] = molecular target: BTK and PKCβII (Homo sapiens, UniProt Q06187); conditions: in intact cells and in cell-free systems; cited from earlier work
# BTK and PKCβII, sequence (Q06187 whole entry, species assumed): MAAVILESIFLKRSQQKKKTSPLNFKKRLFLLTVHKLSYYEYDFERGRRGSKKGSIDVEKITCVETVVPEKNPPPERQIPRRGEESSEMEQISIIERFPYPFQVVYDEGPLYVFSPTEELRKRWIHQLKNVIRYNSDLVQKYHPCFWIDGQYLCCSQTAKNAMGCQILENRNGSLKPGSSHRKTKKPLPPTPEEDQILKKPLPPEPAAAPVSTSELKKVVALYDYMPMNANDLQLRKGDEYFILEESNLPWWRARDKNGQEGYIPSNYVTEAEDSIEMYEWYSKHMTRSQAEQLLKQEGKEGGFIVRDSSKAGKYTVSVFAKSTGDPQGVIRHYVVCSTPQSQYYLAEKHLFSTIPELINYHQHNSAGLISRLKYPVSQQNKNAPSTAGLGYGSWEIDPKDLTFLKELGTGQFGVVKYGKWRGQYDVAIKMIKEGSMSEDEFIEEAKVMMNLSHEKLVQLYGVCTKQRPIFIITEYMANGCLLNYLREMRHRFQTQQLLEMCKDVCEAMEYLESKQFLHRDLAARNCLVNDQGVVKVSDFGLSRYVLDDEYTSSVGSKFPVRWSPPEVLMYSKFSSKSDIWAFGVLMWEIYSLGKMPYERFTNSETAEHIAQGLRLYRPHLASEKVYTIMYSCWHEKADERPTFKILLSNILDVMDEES
# [10] = test system: Lyn, Syk, PKA, casein kinase I, ERK1, ERK2 and p38 kinase; conditions: cited from earlier work
# [11] = molecular target: Bruton's tyrosine kinase (BTK) (Homo sapiens, UniProt Q06187); conditions: in intact cells and in cell-free systems; cited from earlier work
# Bruton's tyrosine kinase (BTK), sequence (Q06187 whole entry, species assumed): as above
# [12] = SU-DHL-6, SU-DHL-2, 500 nM for 1, 2, 4, 8 or 12 hours
smiles,measurement,setting,value
"Cc1sc2c(c1C)C(c1ccc(Cl)cc1)=N[C@@H](CC(=O)Nc1ccc(O)cc1)c1nnc(C)n1-2 [Compound (1-1), 2-[(6S)-4-(4-chlorophenyl)-2,3,9-trimethyl-6H-thienol[3,2-f]-[1,2,4]triazolo[4,3-a][1,4]diazepin-6-yl]-N-(4-hydroxyphenyl)acetamide dihydrate]",NFKB target gene expression (PCR),[1],"NFKB target genes (IRF4, TNFAIP3 and BIRC3) were also downregulated"
same,IL10 and IL4 production,[2],IL10 and IL4 production was reduced
same,nuclear localization of p50 (NFKB 1),[3],reduction in nuclear localization of p50 (NFKB 1)
same,transcriptionally active pSTAT3,[3]; 2 ABC cell lines,reduction of transcriptionally active pSTAT3
same,MYD88/JAK/STAT pathway expression (additional GEP),[4]; Example 7,down-regulation of the MYD88/JAK/STAT pathway
same,"genes downregulated (GEP), members of the NFKB, TLR and JAK/STAT pathways",[4]; [12],"downregulated MYD88, IRAK1, TLR6, IL6, STAT3, and TNFRSF17"
same,most frequently downregulated gene (GEP),[4]; [12],MYC was the most frequently downregulated gene
same,most upregulated genes (GEP),[4]; [12],Most upregulated genes were histones
COc1cccc2cc(-c3nc([C@H]4CC[C@H](C(=O)O)CC4)n4ncnc(N)c34)[nH]c12 [OSI-027],IC50,[5],22 nM
COc1ccc(COc2cc3oc(=O)c4cc(C(C)O)ccc4c3cc2OC)cc1 (stereo not shown) [Palomid 529],effect on phosphorylation markers,[6],"reduces phosphorylation of pAktS473, pGSK3βS9, and pS6 but neither pMAPK nor pAktT308"
same,mTORC1 complex inhibition,[5],inhibits both the mTORC1 and mTORC2 complexes
same,mTORC2 complex inhibition,[7],inhibits both the mTORC1 and mTORC2 complexes
"CC1=C(O)C(=O)[C@@H]2O[C@@H]2C1=O [Terreic acid, (1R,6S)-3-Hydroxy-4-methyl-7-oxabicyclo[4.1.0]hept-3-ene-2,5-dione]",activity of PKC,[8],without affecting the activity of PKC
same,interaction between BTK and PKCβII,[9],Inhibits the catalytic activity of BTK as well as the interaction between BTK and PKCβII
same,"effect on activities of Lyn, Syk, PKA, casein kinase I, ERK1, ERK2 and p38 kinase",[10],little or no effect
same,catalytic activity of BTK,[11],Inhibits the catalytic activity of BTK

# Source: patent publication US20160158246A1, “METHOD OF TREATING DIFFUSE LARGE B-CELL LYMPHOMA (DLBCL) USING A BET-BROMODOMAIN INHIBITOR” (ONCOETHIX GMBH, priority 2013, published 2016)
